Measured values reported in US20160052955A1, “[…] INHIBITORS FOR TREATING CANCERS” (SLOAN-KETTERING INSTITUTE FOR CANCER RESEARCH, priority 2013, published 2016).
Like-named read-outs stand apart in the source and are kept apart here.

Legend:
Format in all cases: biochemical
GLP1 (951-1235) = target: T1, GLP1 (951-1235) (Homo sapiens, UniProt Q9H9B1); test: Filter-paper methyltransferase assay, GLP1; conditions: substrate H3 (1-21 aa), 10 nM enzyme, 1 h
T1 construct: GLP1 (951-1235)
T1 sequence (Q9H9B1 982-1266): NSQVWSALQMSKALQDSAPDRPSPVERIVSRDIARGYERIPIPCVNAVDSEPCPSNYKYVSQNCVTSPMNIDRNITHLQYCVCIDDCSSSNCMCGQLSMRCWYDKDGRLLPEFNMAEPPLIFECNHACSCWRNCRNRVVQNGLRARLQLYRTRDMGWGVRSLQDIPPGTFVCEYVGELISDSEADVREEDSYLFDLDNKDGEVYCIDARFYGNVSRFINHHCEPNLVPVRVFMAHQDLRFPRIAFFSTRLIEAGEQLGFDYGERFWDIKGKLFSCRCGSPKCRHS
Method: (§1) Methylation Reaction. The 20 μL methylation reaction was carried out at ambient temperature using two mixtures: A. 10 μl of enzyme mixture in the assay buffer containing 50 mM Hepes (pH=8.0), 0.005% Tween-20, 5 μg/ml BSA and 1 mM TCEP; B. 10 μl of a mixture of […], 0.15 μCi [^3H-Me]-SAM cofactor and 3 μM of the corresponding peptide substrate in the same assay buffer. After A and B were mixed for a designated time period, the reaction mixture was examined with our filter-paper assay.
(§2) Filter-paper Assay. This assay relies on Whatman P-81 filter paper, which binds peptides but not SAM. Protein Methyl Transferases (PMTs) transfer ^3H-Me of [^3H-Me]-SAM to peptide substrates and the resultant ^3H-methylated, filter-paper-bound peptide is quantified with a scintillation counter. Briefly, 6 μl of the methylation reaction was spotted onto Whatman P-81 phosphocellulose filter paper (1.2×1.2 cm^2) to immobilize the ^3H-labeled peptide. After drying in air for 20 min, the filter paper was immersed into 20 mL of 50 mM Na2CO3/NaHCO3 buffer (pH=9.2), and washed 5 times for 10 min each time. The washed filter paper was then transferred to a 20 ml scintillation vial containing 1 mL of distilled water and 10 mL of Ultima Gold scintillation cocktail or 7 mL scintillation vial containing 0.5 mL od distilled water and 5 mL of scintillation cocktail (PerkinElmer). The radioactivity was quantified by a Beckman LS6000IC liquid scintillation counter.
(§3) Dose-response Curves and IC50. Twice the PMT concentration was incubated for 10 min with varied concentration of inhibitors (0.1-400 μM stocks), into which 10 μl of the PMT peptide substrate and radioactive cofactor (3 μM of the corresponding peptide and 1.5 μM, 0.15 μCi [^3H-Me]-SAM) were added. After incubating the reaction mixture for the respective reaction time, the conversion was quantified with the filter paper assay as described above. The inhibition was expressed as the percentage between the high control (no inhibition) and the low control (no enzyme) as follows: Percentage Inhibition=[(high control−reading)/(high control−low control)]×100%. Each experiment was performed in triplicate. The IC50 values were obtained by fitting inhibition percentage versus inhibitor concentration using GraphPad Prism5 software.

PRMT3 (211-531) = target: T2, PRMT3 (211-531) (Homo sapiens, UniProt O60678); test: Filter-paper methyltransferase assay, PRMT3; conditions: substrate RGG, 100 nM enzyme, 3 h; read-out: IC50 PRMT3
T2 construct: PRMT3 (211-531)

G9a (913-1913) = target: T3, G9a (913-1913) (Homo sapiens, UniProt Q96KQ7); test: Filter-paper methyltransferase assay, G9a; conditions: substrate H3 (1-21 aa), 20 nM enzyme, 1 h
T3 construct: G9a (913-1913)
T3 sequence (Q96KQ7 913-1193 limits assumed): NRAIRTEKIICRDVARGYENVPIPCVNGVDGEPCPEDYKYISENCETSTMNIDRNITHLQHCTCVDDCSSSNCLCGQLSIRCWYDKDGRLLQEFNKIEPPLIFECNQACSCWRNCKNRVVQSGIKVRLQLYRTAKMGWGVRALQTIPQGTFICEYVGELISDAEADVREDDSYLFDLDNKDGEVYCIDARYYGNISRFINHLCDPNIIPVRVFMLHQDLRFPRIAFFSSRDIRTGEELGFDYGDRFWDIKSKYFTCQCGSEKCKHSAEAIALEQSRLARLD

SUV39H2 (112-410) = target: T4, SUV39H2 (112-410) (Homo sapiens, UniProt Q9H5I1); test: Filter-paper methyltransferase assay, SUV39H2; conditions: substrate H3 (1-21 aa), 5 nM enzyme, 4 h; read-out: IC50 SUV39H2
T4 construct: SUV39H2 (112-410)

PRMT1 (10-352) = target: T5, PRMT1 (10-352) (Homo sapiens, UniProt Q99873); test: Filter-paper methyltransferase assay, PRMT1; conditions: 100 nm enzyme, substrate RGG, 1.5 h
T5 construct: PRMT1 (10-352)

DOT1L = DOT1L (Homo sapiens, UniProt Q8TEK3); test: Filter-paper methyltransferase assay, DOT1L; conditions: for IC50: substrate nucleosomes, 50 nM enzyme, 6 h
CARM1 (19-608) = target: T6, CARM1 (19-608) (Homo sapiens, UniProt Q86X55); test: Filter-paper methyltransferase assay, CARM1
T6 construct: CARM1 (19-608)
T6 sequence (Q86X55 19-608): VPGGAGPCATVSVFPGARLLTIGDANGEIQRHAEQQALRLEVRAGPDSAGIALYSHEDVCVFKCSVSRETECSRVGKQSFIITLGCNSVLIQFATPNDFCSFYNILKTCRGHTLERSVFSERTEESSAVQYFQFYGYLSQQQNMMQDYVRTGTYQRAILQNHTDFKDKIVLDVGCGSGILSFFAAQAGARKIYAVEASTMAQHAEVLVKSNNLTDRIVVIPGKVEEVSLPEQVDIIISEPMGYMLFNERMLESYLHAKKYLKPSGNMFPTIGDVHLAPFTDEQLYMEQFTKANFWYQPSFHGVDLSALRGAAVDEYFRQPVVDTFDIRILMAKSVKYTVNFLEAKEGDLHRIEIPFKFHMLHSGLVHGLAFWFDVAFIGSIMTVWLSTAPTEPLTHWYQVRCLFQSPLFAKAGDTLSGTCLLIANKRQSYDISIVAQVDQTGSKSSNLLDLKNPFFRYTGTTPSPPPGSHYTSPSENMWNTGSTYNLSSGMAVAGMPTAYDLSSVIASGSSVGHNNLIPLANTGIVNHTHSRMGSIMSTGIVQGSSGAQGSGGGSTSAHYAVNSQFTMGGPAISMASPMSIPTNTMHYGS

SETDB1Full-length = target: T7, SETDB1Full-length (Homo sapiens, UniProt Q15047); test: Filter-paper methyltransferase assay, SETDB1; conditions: substrate H3 (1-21 aa), 7.5 nM enzyme, 15 h; read-out: IC50 SETDB1-FL
T7 construct: SETDB1Full-length

SMYD2 Full-length = target: T8, SMYD2 Full-length (Homo sapiens, UniProt Q9NRG4); test: Filter-paper methyltransferase assay, SMYD2; conditions: substrate p53 (360-393 aa), 50 nM enzyme, 10 h; read-out: IC50 SMYD2-FL
T8 construct: SMYD2 Full-length
Method: as §1, §2, §3

SET8 (191-352) = target: T9, SET8 (191-352) (Homo sapiens, UniProt Q9NQR1); test: Filter-paper methyltransferase assay, SET8; conditions: substrate H4 (10-30 aa), 1000 nM enzyme, 8 h
T9 construct: SET8 (191-352)
T9 sequence (Q9NQR1 191-352 isoform Q9NQR1-2): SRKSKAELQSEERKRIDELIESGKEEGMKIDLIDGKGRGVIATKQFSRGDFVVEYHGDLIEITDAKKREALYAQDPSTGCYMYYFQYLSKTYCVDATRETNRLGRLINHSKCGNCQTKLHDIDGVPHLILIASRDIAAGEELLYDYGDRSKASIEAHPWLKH

SET7/9 Full-length = target: T10, SET7/9 Full-length (Homo sapiens, UniProt Q8WTS6); test: Filter-paper methyltransferase assay, SET7/9; conditions: substrate H3 (1-21 aa), 150 nM enzyme, 3 h
T10 construct: SET7/9 Full-length
T10 sequence (Q8WTS6 1-366): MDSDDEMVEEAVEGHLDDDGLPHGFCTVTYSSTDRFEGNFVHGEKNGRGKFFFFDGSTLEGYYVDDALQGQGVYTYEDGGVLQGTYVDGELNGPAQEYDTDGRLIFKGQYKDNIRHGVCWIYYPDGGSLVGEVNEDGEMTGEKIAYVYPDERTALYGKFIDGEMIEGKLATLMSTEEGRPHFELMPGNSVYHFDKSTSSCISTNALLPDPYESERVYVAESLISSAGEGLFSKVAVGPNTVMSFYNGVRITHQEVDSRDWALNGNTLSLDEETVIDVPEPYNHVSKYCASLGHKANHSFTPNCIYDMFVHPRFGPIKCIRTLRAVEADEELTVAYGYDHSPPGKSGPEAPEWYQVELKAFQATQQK

[1] = substrate H3 (1-40 aa), 300 nM enzyme, 7 h, read-out: IC50 CARM1

Sequence of DOT1L (Q8TEK3 whole entry): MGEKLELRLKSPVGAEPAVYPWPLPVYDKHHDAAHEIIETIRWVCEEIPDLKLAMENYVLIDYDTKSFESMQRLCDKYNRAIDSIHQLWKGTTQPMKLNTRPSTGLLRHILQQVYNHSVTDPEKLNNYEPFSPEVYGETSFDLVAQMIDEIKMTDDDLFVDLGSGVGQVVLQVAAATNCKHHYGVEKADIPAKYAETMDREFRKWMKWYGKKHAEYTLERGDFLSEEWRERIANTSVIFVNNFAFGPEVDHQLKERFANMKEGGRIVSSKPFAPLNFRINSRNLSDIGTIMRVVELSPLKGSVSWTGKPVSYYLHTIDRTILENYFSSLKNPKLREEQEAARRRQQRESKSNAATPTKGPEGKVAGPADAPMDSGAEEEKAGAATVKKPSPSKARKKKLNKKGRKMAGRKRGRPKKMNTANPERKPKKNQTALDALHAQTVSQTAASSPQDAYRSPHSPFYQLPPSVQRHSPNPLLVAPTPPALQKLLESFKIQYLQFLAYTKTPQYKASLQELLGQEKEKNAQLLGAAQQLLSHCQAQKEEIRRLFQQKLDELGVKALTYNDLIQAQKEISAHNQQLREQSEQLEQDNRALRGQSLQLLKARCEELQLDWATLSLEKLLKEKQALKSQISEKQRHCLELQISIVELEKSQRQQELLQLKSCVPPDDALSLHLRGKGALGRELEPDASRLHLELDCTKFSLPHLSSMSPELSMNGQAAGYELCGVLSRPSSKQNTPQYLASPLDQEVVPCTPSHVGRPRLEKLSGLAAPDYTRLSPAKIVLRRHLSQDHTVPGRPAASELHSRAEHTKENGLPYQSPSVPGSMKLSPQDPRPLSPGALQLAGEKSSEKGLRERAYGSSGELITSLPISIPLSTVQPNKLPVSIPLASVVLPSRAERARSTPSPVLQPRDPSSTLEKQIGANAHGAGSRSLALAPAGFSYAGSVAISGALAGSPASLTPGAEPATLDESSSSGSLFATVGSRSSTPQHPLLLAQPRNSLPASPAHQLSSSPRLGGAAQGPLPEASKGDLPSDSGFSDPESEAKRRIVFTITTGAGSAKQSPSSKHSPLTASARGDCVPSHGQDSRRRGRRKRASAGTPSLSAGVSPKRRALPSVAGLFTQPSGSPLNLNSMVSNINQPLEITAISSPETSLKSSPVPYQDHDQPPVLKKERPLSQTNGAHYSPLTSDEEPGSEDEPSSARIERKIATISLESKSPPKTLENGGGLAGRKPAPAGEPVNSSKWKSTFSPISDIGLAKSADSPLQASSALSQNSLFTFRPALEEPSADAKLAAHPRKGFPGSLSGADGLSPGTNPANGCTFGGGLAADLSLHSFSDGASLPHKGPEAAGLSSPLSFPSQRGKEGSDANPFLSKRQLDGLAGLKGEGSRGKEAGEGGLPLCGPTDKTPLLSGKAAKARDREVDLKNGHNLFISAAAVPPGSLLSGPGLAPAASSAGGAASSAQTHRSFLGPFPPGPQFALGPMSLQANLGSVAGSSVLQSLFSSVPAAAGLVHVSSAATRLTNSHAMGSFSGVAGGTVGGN
T2 sequence (O60678 211-531): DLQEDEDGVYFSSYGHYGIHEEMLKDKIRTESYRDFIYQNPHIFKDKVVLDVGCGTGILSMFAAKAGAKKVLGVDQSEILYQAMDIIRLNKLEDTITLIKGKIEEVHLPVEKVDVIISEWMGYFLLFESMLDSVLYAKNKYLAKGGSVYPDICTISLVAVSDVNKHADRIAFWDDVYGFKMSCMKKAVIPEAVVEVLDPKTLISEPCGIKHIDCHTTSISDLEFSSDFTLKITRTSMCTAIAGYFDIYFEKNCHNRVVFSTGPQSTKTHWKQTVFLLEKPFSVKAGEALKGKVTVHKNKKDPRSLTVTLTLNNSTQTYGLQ
T8 sequence (Q9NRG4 whole entry, the tested form may be a part): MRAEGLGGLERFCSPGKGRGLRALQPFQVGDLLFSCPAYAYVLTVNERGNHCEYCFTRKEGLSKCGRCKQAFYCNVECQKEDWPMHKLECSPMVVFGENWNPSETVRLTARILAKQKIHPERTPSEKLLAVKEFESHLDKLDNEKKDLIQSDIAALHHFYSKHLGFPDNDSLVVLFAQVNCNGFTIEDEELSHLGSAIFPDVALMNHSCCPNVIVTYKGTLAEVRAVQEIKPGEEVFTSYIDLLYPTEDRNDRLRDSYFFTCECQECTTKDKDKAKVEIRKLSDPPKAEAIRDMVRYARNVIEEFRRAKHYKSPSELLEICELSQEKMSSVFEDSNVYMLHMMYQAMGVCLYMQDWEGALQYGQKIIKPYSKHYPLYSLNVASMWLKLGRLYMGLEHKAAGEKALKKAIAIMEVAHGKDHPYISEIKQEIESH
T4 sequence (Q9H5I1 112-410): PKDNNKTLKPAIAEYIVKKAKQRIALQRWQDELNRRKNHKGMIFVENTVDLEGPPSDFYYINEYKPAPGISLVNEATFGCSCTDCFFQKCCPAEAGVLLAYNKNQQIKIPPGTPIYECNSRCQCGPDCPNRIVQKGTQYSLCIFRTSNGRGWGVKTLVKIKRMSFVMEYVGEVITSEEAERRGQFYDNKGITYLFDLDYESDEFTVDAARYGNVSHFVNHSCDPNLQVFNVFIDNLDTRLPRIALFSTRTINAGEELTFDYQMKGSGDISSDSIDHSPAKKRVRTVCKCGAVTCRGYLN
T5 sequence (Q99873 10-352 isoform Q99873-3): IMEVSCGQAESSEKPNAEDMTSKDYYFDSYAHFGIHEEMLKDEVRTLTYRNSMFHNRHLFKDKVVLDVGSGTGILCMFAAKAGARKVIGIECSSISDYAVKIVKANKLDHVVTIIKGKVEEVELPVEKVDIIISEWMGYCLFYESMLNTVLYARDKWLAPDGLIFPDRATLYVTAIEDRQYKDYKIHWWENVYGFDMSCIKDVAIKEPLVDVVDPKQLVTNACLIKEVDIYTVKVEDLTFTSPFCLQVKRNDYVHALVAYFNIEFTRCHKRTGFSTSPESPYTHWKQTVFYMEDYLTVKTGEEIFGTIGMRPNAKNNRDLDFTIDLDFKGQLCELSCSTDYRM

Structure (SMILES) | IC50 (GLP1 (951-1235)) [µM] | IC50 (PRMT3 (211-531)) [µM] | IC50 (G9a (913-1913)) [µM] | IC50 (SUV39H2 (112-410)) [µM] | IC50 (PRMT1 (10-352)) [µM] | inhibitory activity to DOT1L (in words) (DOT1L) | IC50 (DOT1L) [µM] | inhibitory activity to CARM1 (in words) (CARM1 (19-608)) | IC50 (CARM1 (19-608); [1]) [µM] | IC50 (SETDB1Full-length) [µM] | IC50 (SMYD2 Full-length) [µM] | IC50 (CARM1 (19-608)) [µM] | IC50 (SET8 (191-352)) [µM] | IC50 (SET7/9 Full-length) [µM]
CC(C)(C)c1ccc(NC(=O)NCCC[C@H](N)C[C@H]2O[C@@H](n3cnc4c(N)ncnc43)[C@H](O)[C@@H]2O)cc1 [Example 27] | > 100 | 35.4 | > 100 | > 100 | > 100 | remarkable inhibitory activity | 0.14 | remarkable inhibitory activity | 0.1 | ~100 | ~100 |  |  | 
Nc1ncnc2c1ncn2[C@@H]1O[C@H](C[C@@H](N)CCCNC(=O)Nc2ccccc2)[C@@H](O)[C@H]1O [Example 26] | > 100 | 5.9 | > 100 | > 100 | ~100 |  | 0.84 |  | 1.9 | 55 | 61.6 |  |  | 
Nc1ncnc2c1ncn2[C@@H]1O[C@H](C[C@@H](N)CC[C@H](N)C(=O)O)[C@@H](O)[C@H]1O [Sinefungin, sinefungin, reference compound] | 32 | 28.2 |  | 4.58 |  |  | 53.4 |  |  |  | 0.22 | 0.44 | > 100 | 1.14
